Source: PubChem BioAssay (NCI)
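Grown in 96-well plates, cells were treated for 48 hours with each compound at five concentrations. Insufficient inhibition: endpoint recorded as highest concentration tested. TGI is the concentration that stops growth completely.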

What was measured:
Assay in all cases: NCI-60 cell line screen, 48 h
HOP-62 NSCLC = system: HOP-62 NSCLC
NCI-H460 lung = system: NCI-H460 lung
A549 NSCLC = system: A549 NSCLC
HCT-15 colon = system: HCT-15 colon
UO-31 renal = system: UO-31 renal
HCT-116 colon = system: HCT-116 colon
SK-MEL-5 melanoma = system: SK-MEL-5 melanoma
RXF 393 renal = system: RXF 393 renal
U251 CNS = system: U251 CNS
OVCAR-4 ovarian = system: OVCAR-4 ovarian

SMILES	TGI (HOP-62 NSCLC)	TGI (NCI-H460 lung)	TGI (A549 NSCLC)	TGI (HCT-15 colon)	TGI (UO-31 renal)	TGI (HCT-116 colon)	TGI (SK-MEL-5 melanoma)	TGI (RXF 393 renal)	TGI (U251 CNS)	TGI (OVCAR-4 ovarian)
O=C(Nc1nccs1)NS(=O)(=O)n1cnc2ccccc21	> 100 µM	> 100 µM	> 100 µM	> 100 µM	> 100 µM	> 100 µM	> 100 µM	> 100 µM	> 100 µM	> 100 µM
CC1(C)CC[C@]2(C(=O)O)CC[C@]3(C)C(=CC[C@@H]4[C@@]5(C)CC[C@H](OC6OC(CO)C(O)C(O)C6O)C(C)(C)[C@@H]5CC[C@]43C)[C@@H]2C1 (some centres undefined)	3.14 µM	14.3 µM	3.08 µM	10.7 µM	3.1 µM	3.13 µM	3.54 µM	3.77 µM	3.05 µM	3 µM
Cc1ccc(N2C3=C(CC4=C2CC(C)(C)CC4=O)C(=O)CC(C)(C)C3)cc1	> 100 µM	> 100 µM	> 100 µM	> 100 µM	> 100 µM	> 100 µM	> 100 µM	> 100 µM	> 100 µM	> 100 µM
COc1cc(C2SCC(=O)N2NC(=O)c2ccc(NC(C)=O)cc2OC)ccc1O (centres undefined)	36.7 µM		> 100 µM	> 100 µM	> 100 µM	> 100 µM		> 100 µM		> 100 µM
CN(C)c1c(C2CC(O)C(CO)O2)c(=O)c1=O (centres undefined)	> 100 µM	> 100 µM	> 100 µM	> 100 µM	> 100 µM	> 100 µM			> 100 µM	> 100 µM
CCSc1nc(C)nc2c1sc1nc3ccccc3n12		> 100 µM	> 100 µM	> 100 µM	> 100 µM	> 100 µM	> 100 µM	> 100 µM	> 100 µM	> 100 µM
C(#C[C@@]12CCC[C@@H]1N(Cc1ccccc1)CO2)c1ccc2c(c1)OCO2	> 100 µM	> 100 µM	> 100 µM	> 100 µM	> 100 µM	> 100 µM		> 100 µM	> 100 µM	> 100 µM
O=P(O)(O)CC1OC(CO)C(O)C1O (centres undefined)		> 100 µM	> 100 µM	> 100 µM	> 100 µM	> 100 µM	> 100 µM	> 100 µM	> 100 µM	> 100 µM
C=C(C)C1CC2=C(O1)C(=O)c1cccc(O)c1C2=O (centres undefined)	2.94 µM	3.75 µM	4.9 µM	4.36 µM	2.84 µM		0.304 µM	2.54 µM	3.01 µM	0.926 µM
CC(C)(C)OC(=O)N1CCC(NC(=O)NC2CCN(C(=O)OC(C)(C)C)CC2)CC1	> 100 µM	> 100 µM	> 100 µM	> 100 µM	> 100 µM	> 100 µM			> 100 µM	> 100 µM
CC1(C)/C(=N\Nc2ccc([N+](=O)[O-])cc2[N+](=O)[O-])C2CCC1C2 (centres undefined)	> 100 µM	> 100 µM	> 100 µM	> 100 µM	> 100 µM	> 100 µM	> 100 µM		> 100 µM	> 100 µM
S=C(S)N1CCN(c2ccccc2)CC1	> 100 µM		> 100 µM	> 100 µM		> 100 µM	> 100 µM	> 100 µM	> 100 µM	
O=C(NNC(=O)c1c(Cl)c(Cl)c(Cl)c(Cl)c1-c1nc2ccccc2[nH]1)c1ccc(Cl)cc1	> 100 µM		> 100 µM	> 100 µM	> 100 µM	> 100 µM	> 100 µM	> 100 µM		> 100 µM
COc1ccc(NC(=S)Nc2c(C)n(C)n(-c3ccccc3)c2=O)cc1	> 100 µM	> 100 µM	> 100 µM	> 100 µM	> 100 µM	> 100 µM	> 100 µM	> 100 µM	> 100 µM	
OC[C@@H](O)[C@H](O)[C@@H](O)/C=N/Nc1ccc(Cl)nn1	> 100 µM	> 100 µM	> 100 µM	> 100 µM		> 100 µM	> 100 µM	> 100 µM	> 100 µM	> 100 µM
CCCCCCC(=O)c1ccc2ccccc2c1O	> 100 µM	> 100 µM		> 100 µM	> 100 µM	> 100 µM	> 100 µM	74.4 µM	> 100 µM	> 100 µM
CS(=O)(=O)CCC(N)P(=O)(O)O (centres undefined)	> 100 µM	> 100 µM	> 100 µM	> 100 µM	> 100 µM	> 100 µM	> 100 µM		> 100 µM	> 100 µM
COC(=O)/C=C/c1cnc2c(c1)oc(=O)n2C	> 100 µM	> 100 µM	> 100 µM	> 100 µM	> 100 µM	> 100 µM	> 100 µM		> 100 µM	> 100 µM
COc1ccc(C(=O)N(Cc2cccnc2)C(=S)N(Cc2cccnc2)C(=O)c2ccc(OC)cc2)cc1	> 100 µM	> 100 µM	> 100 µM	> 100 µM		> 100 µM	> 100 µM	> 100 µM	> 100 µM	> 100 µM
Clc1nc(Nc2nc3ccccc3[nH]2)nc(Cl)c1-c1ccccc1		28.7 µM	> 100 µM	34.2 µM	42.4 µM	> 100 µM	53.5 µM	35.6 µM	32.7 µM	32.8 µM
CC(=O)OCCCCn1cnc2c(Cl)nc(Nc3ccccc3)nc21	> 100 µM	> 100 µM	> 100 µM	> 100 µM	> 100 µM	> 100 µM	> 100 µM		> 100 µM	> 100 µM
CCOC(=O)c1csc(-c2nc(CCNC(=O)c3ccccc3)sc2Cl)n1	> 100 µM	> 100 µM	> 100 µM	> 100 µM	> 100 µM	> 100 µM	> 100 µM	> 100 µM	> 100 µM	
